Test results published in patent US20240000885A1 (VANDERBILT UNIVERSITY, published 2024).
Where two headings read alike, the source gives them in different places.

Assays:
[1] = target: interaction of MHV M tail with MYO5B(ABCDE) (UniProt P03415+Q9ULV0); assay type: cell-based, Mouse Hepatitis Virus (MHV)
[2] = target: interaction of MHV M-GFP with Cherry-MYO5B+D tail (902T) in A549 cells (UniProt P03415+Q9ULV0); assay type: cell-based, human
[3] = target: T1, pAD-MYO5B(ABCDE) (human, UniProt Q9ULV0 1235-1439); assay: binary yeast 2-hybrid
T1 construct: also called MYO5B ABCDE exons; construct containing just the ABCDE exons
T1 sequence: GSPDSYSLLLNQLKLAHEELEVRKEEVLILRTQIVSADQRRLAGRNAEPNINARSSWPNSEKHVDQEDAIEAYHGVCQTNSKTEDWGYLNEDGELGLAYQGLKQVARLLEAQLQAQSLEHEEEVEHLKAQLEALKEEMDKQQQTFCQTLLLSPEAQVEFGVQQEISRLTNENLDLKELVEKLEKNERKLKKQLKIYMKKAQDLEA

Sequence of interaction of MHV M-GFP with Cherry-MYO5B+D tail (902T) in A549 cells (Q9ULV0 902-1848, one chain of several): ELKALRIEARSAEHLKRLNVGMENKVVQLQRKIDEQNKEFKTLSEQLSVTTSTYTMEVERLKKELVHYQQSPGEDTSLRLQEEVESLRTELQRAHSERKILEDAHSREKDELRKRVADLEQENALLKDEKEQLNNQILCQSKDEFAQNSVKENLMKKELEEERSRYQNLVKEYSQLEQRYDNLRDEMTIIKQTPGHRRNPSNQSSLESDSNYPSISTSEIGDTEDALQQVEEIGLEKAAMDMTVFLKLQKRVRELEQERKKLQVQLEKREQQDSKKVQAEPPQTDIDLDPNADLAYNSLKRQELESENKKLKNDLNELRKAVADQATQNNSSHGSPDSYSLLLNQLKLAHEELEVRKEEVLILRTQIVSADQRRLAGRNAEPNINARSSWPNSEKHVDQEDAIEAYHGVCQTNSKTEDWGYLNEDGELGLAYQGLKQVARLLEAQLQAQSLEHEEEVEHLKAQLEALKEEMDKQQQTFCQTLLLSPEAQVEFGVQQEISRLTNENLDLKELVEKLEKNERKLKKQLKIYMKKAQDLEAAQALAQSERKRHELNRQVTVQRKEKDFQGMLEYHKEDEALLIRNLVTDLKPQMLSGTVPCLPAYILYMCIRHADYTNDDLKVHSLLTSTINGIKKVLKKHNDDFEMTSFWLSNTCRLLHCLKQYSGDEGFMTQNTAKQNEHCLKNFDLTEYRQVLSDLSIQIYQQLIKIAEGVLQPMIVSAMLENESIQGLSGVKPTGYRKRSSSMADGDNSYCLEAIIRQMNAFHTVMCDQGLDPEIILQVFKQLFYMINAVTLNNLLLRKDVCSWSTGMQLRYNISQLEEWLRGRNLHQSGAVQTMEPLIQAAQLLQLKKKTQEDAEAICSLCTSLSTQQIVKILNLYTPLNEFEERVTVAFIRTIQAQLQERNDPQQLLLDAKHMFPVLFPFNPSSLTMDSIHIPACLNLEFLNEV

Molecule: CNC(=C[N+](=O)[O-])NCCSCc1csc(CN(C)C)n1 [Nizatidine]
- identified as hit in initial yeast 2-hybrid screen (loss of b-galactosidase activity) [1]: hits
- effect on colocalization of MHV M-GFP with ch-MYO5B+D 902 Tail [2]: disrupts the colocalization
- inhibition of the interaction between MHV M and MYO5B+D [2]: showed inhibition
- lowest concentration causing loss of localization between MHV M and MYO5B+D [2]: 10 pM
- lowest concentration that disrupted co-localization of MHV M-GFP and Cherry-MYO5B+D tail [2]: 100 µM
- lowest dose that disrupted co-localization of MHV M with MYO5B+D [2]: 100 pM

Molecule: Amiodorone
- identified as hit in initial yeast 2-hybrid screen (loss of b-galactosidase activity) ([1]; 10 μM, 24 hours): hits
- inhibition of the interaction between MHV M and MYO5B+D [2]: showed inhibition

Molecule: O=C(O)Cc1ccccc1Nc1c(Cl)cccc1Cl [Diclofenac]
- identified as hit in initial yeast 2-hybrid screen (loss of b-galactosidase activity) ([1]; 10 μM, 24 hours): hits
- inhibition of the interaction between MHV M and MYO5B+D [2]: more equivocal effects

Molecule: CN1Cc2c(N)cccc2C(c2ccccc2)C1 (centres unmarked) [Nomifensine]
- identified as hit in initial yeast 2-hybrid screen (loss of b-galactosidase activity) ([1]; 10 μM, 24 hours): hits
- inhibition of the interaction between MHV M and MYO5B+D [2]: did not alter the interaction

Molecule: CS(=O)(=O)Nc1ccc([N+](=O)[O-])cc1Oc1ccccc1 [Nimesulide]
- identified as hit in initial yeast 2-hybrid screen (loss of b-galactosidase activity) [1]: hits
- inhibition of the interaction between MHV M and MYO5B+D [2]: more equivocal effects

Molecule: NC(N)=Nc1nc(CSCCC(N)=NS(N)(=O)=O)cs1 [Famotidine]
- effect on the co-localization of MHV M with MYO5B+D [2]: no effect

Molecule: CN/C(=N/CCSCc1nc[nH]c1C)NC#N [Cimetidine]
- effect on the co-localization of MHV M with MYO5B+D [2]: no effect

B1: MHV M tail with deletion of the terminal 2 amino acids (other)
chain: SIRLFIRTGSWWSFNPETNNLMCIDMKGTVYVRPIIEDYHTLTATIIRGHLYMQGVKLGTGFSLSDLPAYVTVAKVSHLCTYKRAFLDKVDGVSGFAVYVKSKVGNYRLPSNKPSGADTALL
- binding result [3]: binds
